The experiment relates to BDF1 mice, B16 melanoma ip, median survival T/C. Put plainly: NCI In Vivo Anticancer Drug Screen. Data for tumor model B16 Melanoma (intraperitoneal) in B6D2F1 (BDF1) mice. Conditions: endpoint: median survival time, higher = longer survival. The method in brief:
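Each result divides a survival or tumor-size measurement in the compound-treated group by the same measurement in the vehicle group.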

Where [1] appears, read: dose: 100.0 mg/kg/injection, schedule: Q01DX009 (ip), vehicle: Klucel (hydroxypropylcellulose) (HPC).
[2] abbreviates: dose: 200.0 mg/kg/injection, schedule: Q01DX009 (ip), vehicle: Klucel (hydroxypropylcellulose) (HPC).
Setting [3] is: dose: 400.0 mg/kg/injection, schedule: Q01DX009 (ip), vehicle: Klucel (hydroxypropylcellulose) (HPC).
Setting [4] is: dose: 12.5 mg/kg/injection, schedule: Q01DX009 (ip), vehicle: Klucel (hydroxypropylcellulose) (HPC).
The mark [5] stands for this setting: dose: 25.0 mg/kg/injection, schedule: Q01DX009 (ip), vehicle: Klucel (hydroxypropylcellulose) (HPC).
[6] abbreviates: dose: 50.0 mg/kg/injection, schedule: Q01DX009 (ip), vehicle: saline.
The mark [7] stands for this setting: dose: 100.0 mg/kg/injection, schedule: Q01DX009 (ip), vehicle: saline.
The mark [8] stands for this setting: dose: 200.0 mg/kg/injection, schedule: Q01DX009 (ip), vehicle: saline.
[9] abbreviates: dose: 400.0 mg/kg/injection, schedule: Q01DX009 (ip), vehicle: saline.
Setting [10] is: dose: 100.0 mg/kg/injection, schedule: Q01DX009 (ip), vehicle: saline with Tween-80.
The mark [11] stands for this setting: dose: 150.0 mg/kg/injection, schedule: Q01DX009 (ip), vehicle: saline.
Setting [12] is: dose: 25.0 mg/kg/injection, schedule: Q01DX009 (ip), vehicle: saline.
Where [13] appears, read: dose: 100.0 mg/kg/injection, schedule: Q04DX003 (ip), vehicle: Klucel (hydroxypropylcellulose) (HPC).
[14] abbreviates: dose: 200.0 mg/kg/injection, schedule: Q04DX003 (ip), vehicle: Klucel (hydroxypropylcellulose) (HPC).

“And” between values parts separate entries of the source, which are not always exact repeats. Equal entries are not always repeated. Inconclusive results and toxic doses are left out. Square brackets hold non-standard residues; d marks the D form. Peptide text beside a SMILES is read from it. ξ: configuration not given here. ξH = NC(Cc1c[nH]cn1)C(=O)O

As for `CN(/N=N/c1nc[nH]c1C(N)=O)C(C)(C)C`, the T/C is 101 % of control (dose: 18.75 mg/kg/injection, schedule: Q04DX002 (ip), vehicle: Klucel (hydroxypropylcellulose) (HPC)); 107 % of control (dose: 37.5 mg/kg/injection, schedule: Q04DX002 (ip), vehicle: Klucel (hydroxypropylcellulose) (HPC)); 98 % of control (dose: 75.0 mg/kg/injection, schedule: Q04DX002 (ip), vehicle: Klucel (hydroxypropylcellulose) (HPC)); 95 % of control under setting [1]; 101 % of control (dose: 150.0 mg/kg/injection, schedule: Q04DX002 (ip), vehicle: Klucel (hydroxypropylcellulose) (HPC)); 90 % of control under setting [2]. In addition, the T/C reads like this: (dose: 300.0 mg/kg/injection, schedule: Q04DX002 (ip), vehicle: Klucel (hydroxypropylcellulose) (HPC)) 93 % of control; under setting [3], 104 % of control.

In the case of `COC(=O)c1[nH]cnc1/N=N/N(C)C`, the T/C is, setting by setting: (dose: 3.75 mg/kg/injection, schedule: Q01DX009 (ip), vehicle: saline) 121 % of control; (dose: 15.0 mg/kg/injection, schedule: Q01DX009 (ip), vehicle: saline) 121 % of control.

With `O=C(NC(Cc1ccccc1)C(=O)CCl)OCc1ccccc1` (configuration not stated), the T/C is 100 % of control under setting [4] and 97 % of control under setting [5].

On to `CC[C@](C)(O)C(=O)O[C@H]1C(=O)O[C@@H]2C[C@H]3C(C)=CC(=O)[C@@H](O)[C@]3(C)[C@H]3[C@@]4(O)OC[C@]32[C@@H]1[C@@H](C)[C@H]4O`, for which the T/C was 110 % of control (dose: 0.13 mg/kg/injection, schedule: Q01DX009 (ip), vehicle: Klucel (hydroxypropylcellulose) (HPC)); 108 % of control (dose: 0.13 mg/kg/injection, schedule: Q01DX009 (ip), vehicle: steriod suspending solution); 107 % of control (dose: 0.25 mg/kg/injection, schedule: Q01DX009 (ip), vehicle: Klucel (hydroxypropylcellulose) (HPC)); 121 % of control (dose: 0.25 mg/kg/injection, schedule: Q01DX009 (ip), vehicle: saline); 122 % of control (dose: 0.25 mg/kg/injection, schedule: Q01DX009 (ip), vehicle: steriod suspending solution); 114 % of control (dose: 0.5 mg/kg/injection, schedule: Q01DX009 (ip), vehicle: Klucel (hydroxypropylcellulose) (HPC)). In addition, the T/C reads like this: (dose: 0.5 mg/kg/injection, schedule: Q01DX009 (ip), vehicle: saline) 154 % of control; (dose: 1.0 mg/kg/injection, schedule: Q01DX009 (ip), vehicle: steriod suspending solution) 114 % of control; (dose: 125.0 micrograms/kg/injection, schedule: Q01DX009 (ip), vehicle: saline with Tween-80) 121 % of control; (dose: 250.0 micrograms/kg/injection, schedule: Q01DX009 (ip), vehicle: saline with Tween-80) 112 % of control; (dose: 500.0 micrograms/kg/injection, schedule: Q01DX009 (ip), vehicle: saline with Tween-80) 121 % of control.

On to `NCC(=O)NCC(=O)NC(Cc1cnc[nH]1)C(=O)O` (stereo not drawn) (H-Gly-Gly-[ξH]-OH), for which the T/C by setting is: under setting [6], 92 % of control; under setting [7], 99 % of control; under setting [8], 88 % of control; under setting [9], 101 % of control.

For `COc1cccc2c1C(=O)c1c(O)c3c(c(O)c1C2=O)C[C@@](O)(C(C)=O)C[C@@H]3OC1CC(N(Cc2ccccc2)Cc2ccccc2)C(O)C(C)O1` (some centres not stated), the T/C was 103 % of control (dose: 12.5 mg/kg/injection, schedule: Q01DX001 (ip), vehicle: water); 113 % of control (dose: 25.0 mg/kg/injection, schedule: Q01DX001 (ip), vehicle: water); 150 % of control (dose: 100.0 mg/kg/injection, schedule: Q01DX001 (ip), vehicle: water).

For `Cc1[nH]c(=O)[nH]c(=O)c1[N+](=O)[O-]`, the T/C is, setting by setting: under setting [1], 100 % of control; under setting [2], 95 % of control; under setting [3], 100 % of control.

As to `Cc1cccc(/C=N/OCCC(C)C)n1`, the T/C runs as follows: (dose: 50.0 mg/kg/injection, schedule: Q01DX009 (ip), vehicle: saline with Tween-80) 107 % of control; under setting [10], 95 % of control.

Regarding `NC(Cc1cc(Cl)c(O)c(Cl)c1)C(=O)O` (configuration not stated), the T/C was 94 % of control under setting [7], 100 % of control under setting [11] and 98 % of control under setting [8].

As for `COC(=O)[CH](C[N+](=O)[O-])[Hg][Cl]` (configuration not stated), the T/C is, setting by setting: (dose: 3.2 mg/kg/injection, schedule: Q01DX009 (ip), vehicle: saline with Tween-80) 95 % of control; (dose: 6.25 mg/kg/injection, schedule: Q01DX009 (ip), vehicle: saline) 102 % of control; (dose: 6.3 mg/kg/injection, schedule: Q01DX009 (ip), vehicle: saline with Tween-80) 91 % of control; (dose: 12.5 mg/kg/injection, schedule: Q01DX009 (ip), vehicle: saline with Tween-80) 89 % of control; (dose: 12.5 mg/kg/injection, schedule: Q01DX009 (ip), vehicle: saline) 93 % of control; (dose: 12.5 mg/kg/injection, schedule: Q04DX003 (ip), vehicle: Klucel (hydroxypropylcellulose) (HPC)) 94 % of control. The T/C under setting [12] is 89 % of control and the T/C (dose: 25.0 mg/kg/injection, schedule: Q04DX003 (ip), vehicle: Klucel (hydroxypropylcellulose) (HPC)) is 92 % of control.

For `COc1ccc(CC(C(=O)O)C(Cc2ccc(OC)c(OC)c2)C(=O)O)cc1OC` (configuration not stated), the T/C under setting [1] is 94 % of control and the T/C under setting [2] was 89 % of control.

`CCOC(=O)C(=CN1CCCCC1)C(=O)OCC`: the T/C under setting [10] is 99 % of control; the T/C (dose: 100.0 mg/kg/injection, schedule: Q04DX003 (ip), vehicle: saline with Tween-80) was 95 % of control; the T/C (dose: 200.0 mg/kg/injection, schedule: Q01DX009 (ip), vehicle: saline with Tween-80) was 100 % of control; the T/C (dose: 200.0 mg/kg/injection, schedule: Q04DX003 (ip), vehicle: saline with Tween-80) was 97 % of control; the T/C (dose: 400.0 mg/kg/injection, schedule: Q04DX003 (ip), vehicle: saline with Tween-80) is 95 % of control.

Turning to `COc1c2c([n+](C)c3c(OC)cccc13)OC(C(C)C)C2` (configuration not stated), the T/C by setting is: (dose: 0.25 mg/kg/injection, schedule: Q01DX009 (ip), vehicle: saline sonified) 102 % of control; (dose: 0.5 mg/kg/injection, schedule: Q01DX009 (ip), vehicle: saline sonified) 100 % of control; (dose: 0.75 mg/kg/injection, schedule: Q01DX009 (ip), vehicle: saline) 94 % of control; (dose: 1.0 mg/kg/injection, schedule: Q01DX009 (ip), vehicle: saline sonified) 102 % of control; (dose: 1.5 mg/kg/injection, schedule: Q01DX009 (ip), vehicle: saline) 88 % of control; (dose: 1.5 mg/kg/injection, schedule: Q04DX003 (ip), vehicle: saline) 107 % of control. In addition, the T/C (dose: 3.0 mg/kg/injection, schedule: Q04DX003 (ip), vehicle: saline) was 89 % of control.

For the compound `Cc1cccc(NC(=O)c2ccc(Cl)cc2)c1C`, the T/C was 93 % of control under setting [1], 89 % of control under setting [2] and 89 % of control under setting [3].

In the case of `CNCC(O)c1ccc(O)cc1` (configuration not stated), the T/C was 110 % of control under setting [12]; 115 % of control and 121 % of control under setting [6]; 110 % of control and 121 % of control under setting [7]; 91 % of control under setting [11]; 106 % of control and 123 % of control under setting [8]; 94 % of control (dose: 300.0 mg/kg/injection, schedule: Q01DX009 (ip), vehicle: saline). For the same compound, the T/C by setting is: under setting [9], 110 % of control; (dose: 600.0 mg/kg/injection, schedule: Q01DX009 (ip), vehicle: saline) 89 % of control.

For the compound `NC1CCC(CCCC2CCCC2)CC1` (configuration not stated), the T/C reads like this: (dose: 6.25 mg/kg/injection, schedule: Q01DX009 (ip), vehicle: Klucel (hydroxypropylcellulose) (HPC)) 96 % of control; under setting [4], 86 % of control; under setting [5], 89 % of control.

For `COC(=O)C1CCC(C(=O)O)CC1` (configuration not stated), the T/C is 100 % of control under setting [13] and 100 % of control under setting [14].

Turning to `Nc1ccc(-c2ccc(N)c(Cl)c2)cc1Cl`, the T/C is, setting by setting: under setting [13], 111 % of control; under setting [14], 108 % of control; (dose: 400.0 mg/kg/injection, schedule: Q04DX003 (ip), vehicle: Klucel (hydroxypropylcellulose) (HPC)) 100 % of control.

Consider `CC(N)CN(C)C` (configuration not stated), for which the T/C reads like this: under setting [6], 101 % of control; under setting [7], 102 % of control; under setting [8], 93 % of control.
